What was measured:
[1] = Solubility of bridged metallocene compound in n-hexane at 25° C.; settings: nitrogen atmosphere, 10 mg of catalyst
[2] = Propylene polymerization with catalyst solution (polymerization activity)
Method: An autoclave made of SUS and having an inner volume of 15 mL was thoroughly purged with nitrogen, and 0.4 mL (0.05 M, 20 μmol) of triisobutylaluminum and 2.7 mL of a solvent which served as a polymerization solvent and in which cyclohexane and hexane had been mixed with each other at a mixing ratio of cyclohexane:hexane=9:1 (volume ratio) were put into the autoclave. The content was stirred at 600-times rotation per minute. […]
Under a nitrogen atmosphere, 2.5 mg (molecular weight: 835.07 g/mol) of the catalyst (a) which served as a bridged metallocene compound was put into a Schlenk flask and dissolved in 5.5 mL of hexane. Then, 0.36 mL of a suspension of modified methylaluminoxane (n-hexane solvent, 4.15 M and 1.49 mmol on an aluminum atom basis) was added thereto at room temperature under stirring to prepare a catalyst solution in which the concentration of the catalyst (a) was 0.00051 M.
The catalyst solution was held at room temperature under a nitrogen atmosphere for 30 minutes, 0.2 mL (0.00051 M, 0.10 μmol) of the catalyst solution and 0.7 mL of a solvent which served as a polymerization solvent and in which cyclohexane and hexane had been mixed with each other at a mixing ratio of cyclohexane:hexane=9:1 (volume ratio) were subsequently put into the autoclave, and then the temperature was increased to 65° C. to initiate polymerization. […]

| Compound | solubility determined from the amount of n-hexane necessary for the dissolution [1] | polymerization activity ([2]; Comparative Example 1: propylene 7 bar, 10 minutes, supernatant catalyst solution held 30 minutes, assuming catalyst concentration 0.00050 M) [kg-PP/mmol-Zr·hr] | polymerization activity ([2]; Example 1: propylene 7 bar, 9 minutes, catalyst solution 0.00051 M held 30 minutes, modified methylaluminoxane) [kg-PP/mmol-Zr·hr] |
| --- | --- | --- | --- |
| Benzyl(p-chlorophenyl)methylene(cyclopentadienyl)(2,7-di-p-chlorophenyl-3,6-di-tert-butylfluorenyl)zirconium Dichloride [catalyst (d)] | 901 µM | – | – |
| Methyl(p-tolyl)methylene(cyclopentadienyl)(2,7-diphenyl-3,6-di-tert-butylfluorenyl)zirconium Dichloride [catalyst (e)] | 6221 µM | – | – |
| Benzyl(phenyl)methylene(cyclopentadienyl)(2,7-di-p-chlorophenyl-3,6-di tert-butylfluorenyl)zirconium Dichloride [catalyst (b)] | 4098 µM | – | – |
| CC(C)(C)c1cc2c3cc(C(C)(C)C)c(-c4ccccc4)cc3[c-](C(Cc3ccccc3)(Cc3ccccc3)[c-]3cccc3)c2cc1-c1ccccc1.[Cl-].[Cl-].[Zr+4] [catalyst (h), Dibenzylmethylene(cyclopentadienyl)(2,7-diphenyl-3,6-di-tert-butylfluorenyl)zirconium Dichloride, reference compound] | not more than 0.278 mmol/L | – | – |
| Benzyl(p-chlorophenyl)methylene(cyclopentadienyl)(2,7-diphenyl-3,6-di-tert-butylfluorenyl)zirconium Dichloride [catalyst (c)] | 1585 µM | – | – |
| n-octyl(phenyl)methylene(cyclopentadienyl)(2,7-diphenyl-3,6-di-tert-butylfluorenyl)zirconium Dichloride [catalyst (f)] | 7683 µM | – | – |
| Diphenylmethylene(cyclopentadienyl)(2,7-diphenyl-3,6-di-tert-butylfluorenyl)zirconium Dichloride [catalyst (g), reference compound] | not more than 0.211 mmol/L | 3.00 | – |
| Benzyl(phenyl)methylene(cyclopentadienyl)(2,7-diphenyl-3,6-di-tert-butylfluorenyl)zirconium Dichloride [catalyst (a)] | 1005 µM | – | 39.90 |
